How the values were obtained:
[1] = test system: pigmentation marks on the skin (back of one hand); test: Clinical evaluation of pigmentation marks (visual overall score 0 to 7 by an expert); type: in vivo; conditions: gelled oil-in-water emulsion with 1% by weight DHEA, applied morning and evening for four months to the back of one hand, 20 women 55 to 70 years old, score constant on untreated hand, FIG. 1
Experimental: (§1) A gelled oil-in-water emulsion, containing 1% by weight of DHEA as sole active agent, was tested on a group of 20 women from 55 to 70 years old. The emulsion was applied morning and evening for four months to the back of one hand.
The marks present on the skin were evaluated before and after treatment by visual observation made by an expert, giving the marks an overall score from 0 to 7 as a function of their number, their size and their intensity (clinical evaluation).

[2] = test system: skin pigmentation (back of one hand); test: Biophysical evaluation by colorimetry (Minolta CR200, parameter b*); type: in vivo; conditions: gelled oil-in-water emulsion with 1% by weight DHEA, applied morning and evening for four months to the back of one hand; 20 women 55 to 70 years old; decrease greater than on untreated hand; FIG. 2
Experimental: as §1
They were also evaluated by colorimetry, using a Minolta CR200 […] (biophysical evaluation). This apparatus describes the colors in a three-dimensional space, using the system of coordinates L, a* and b* recommended by the International Commission on Illumination, in which L* represents the luminance or clarity of the color ([…]), a* is the separation component between green (negative) and red (positive) and is correlated to the skin erythema, and b* varies from blue (negative) to yellow (positive) and represents the skin pigmentation. This parameter b* was used to evaluate the change in the marks in the course of the treatment. It is the result of the average of six individual measurements taken per zone and per measurement period.

C[C@]12CC[C@H](O)CC1=CC[C@@H]1[C@@H]2CC[C@]2(C)C(=O)CC[C@@H]12 [DHEA, dehydroepiandrosterone]
overall clinical score of the pigmentation marks [1]: improvement in the overall clinical score
component b of the color of the skin (skin pigmentation) [2]: decrease in the component b of the color of the skin

— US7351699B1, “Use of DHEA or precursors or metabolic derivatives thereof as a depigmenting agent” (L'Oreal, priority 1999, dated 2008)
